This note sets out measurements from patent publication US20180353501A1 (Arvinas, Inc., priority 2017, published 2018).

The target of one assay is T1, FLAG-p38δ (Homo sapiens, UniProt O15264).
T1 construct: expressed in transfected cells; host or cells: HeLa cells, transient transfection with Lipofectamine 2000
T1 sequence (O15264 1-365): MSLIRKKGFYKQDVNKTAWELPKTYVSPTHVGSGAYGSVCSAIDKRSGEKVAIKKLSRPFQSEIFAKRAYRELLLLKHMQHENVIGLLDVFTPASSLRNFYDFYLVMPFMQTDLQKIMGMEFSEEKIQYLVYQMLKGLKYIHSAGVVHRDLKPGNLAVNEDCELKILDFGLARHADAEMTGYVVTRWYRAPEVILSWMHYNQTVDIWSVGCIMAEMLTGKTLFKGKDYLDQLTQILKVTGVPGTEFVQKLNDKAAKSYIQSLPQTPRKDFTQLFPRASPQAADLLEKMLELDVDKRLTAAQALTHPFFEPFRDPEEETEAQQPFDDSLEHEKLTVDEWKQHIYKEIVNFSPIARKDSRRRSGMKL
The assay is described as follows: TUBE1 immunoprecipitation of polyubiquitinated p38δ, HeLa cells. Format: cell-based. The conditions noted are these: 1 μM, 3 hours. As to the method: FIG. 18. Exemplary compound 46 induces polyubiquitination of p38δ. (A) HeLa cells were co-transfected with HA-Ub and FLAG p38δ and treated with vehicle (DMSO), 1 μM of compound 50, or 1 μM of compound 46 for 3 hours. Lysates were immunoprecipitated with tandem ubiquitin binding entity (TUBE1) agarose beads and assessed by western blots detecting FLAG (p38δ). TUBE1 binds tetra ubiquitin chains with high affinity, thereby enriching for polyubiquitinated proteins. In this assay, HA (Ub) serves as an immunoprecipitation control for poly-Ub TUBE1 enrichment.
Based on these exemplary compound 50-induced and exemplary compound 46-induced ternary complex affinity differences, both in vitro and in cells, whether they were predictive of PROTAC-induced p38δ cellular ubiquitination was examined.
TUBE1 immunoprecipitation experiments were carried out exactly as described above, except for the fact that 1 mg of normalized HeLa lysate was loaded onto 20 μL TUBE1 agarose (LifeSensors) resin per sample.

In a further assay the target is T2, cMET (Homo sapiens, UniProt P08581).
T2 construct: endogenous in cells; host or cells: MDA-MB-231
The assay is described as follows: Western blot examination of protein degradation, MDA-MB-231 cells. Format: cell-based. The conditions noted are these: 24 hours. The procedure:
FIG. 4. Illustrates the degradation of Met by exemplary VHL (Examples 1 and 6) and cereblon (Examples 2 and 8) PROTACS.
Western Blot Examination of Protein Degradation.
MDA-MB-231 cells (1-1.5×10^6) were treated for 24 hours with the indicated compounds solubilized in DMSO. The cells were collected at 300 g for 3 minutes. The cells were then lysed in lysis buffer (25 mM Tris, 1% Triton, 0.25% deoxycholic acid) with Roche protease inhibitor complete cocktail and phosphatase inhibitors (10 mM sodium fluoride, 10 mM sodium pyrophosphate, 1 mM sodium orthovanadate and 20 mM β-glycerophosphate). The total protein concentrations were determined by Pierce BCA Protein Assay and 30-50 μg of protein was loaded onto 10% Tris-Glycine gels. After standard gel electrophoresis, the separated proteins were transferred to nitrocellulose by wet transfer. The immunoblots were then processed by standard procedures and incubated with the respective antibodies. Band intensities were quantified by Bio-Rad's Image Lab software.
On the technique in general: In western blotting, separated proteins are transferred to a membrane and probed.

T2 sequence (P08581 25-1390): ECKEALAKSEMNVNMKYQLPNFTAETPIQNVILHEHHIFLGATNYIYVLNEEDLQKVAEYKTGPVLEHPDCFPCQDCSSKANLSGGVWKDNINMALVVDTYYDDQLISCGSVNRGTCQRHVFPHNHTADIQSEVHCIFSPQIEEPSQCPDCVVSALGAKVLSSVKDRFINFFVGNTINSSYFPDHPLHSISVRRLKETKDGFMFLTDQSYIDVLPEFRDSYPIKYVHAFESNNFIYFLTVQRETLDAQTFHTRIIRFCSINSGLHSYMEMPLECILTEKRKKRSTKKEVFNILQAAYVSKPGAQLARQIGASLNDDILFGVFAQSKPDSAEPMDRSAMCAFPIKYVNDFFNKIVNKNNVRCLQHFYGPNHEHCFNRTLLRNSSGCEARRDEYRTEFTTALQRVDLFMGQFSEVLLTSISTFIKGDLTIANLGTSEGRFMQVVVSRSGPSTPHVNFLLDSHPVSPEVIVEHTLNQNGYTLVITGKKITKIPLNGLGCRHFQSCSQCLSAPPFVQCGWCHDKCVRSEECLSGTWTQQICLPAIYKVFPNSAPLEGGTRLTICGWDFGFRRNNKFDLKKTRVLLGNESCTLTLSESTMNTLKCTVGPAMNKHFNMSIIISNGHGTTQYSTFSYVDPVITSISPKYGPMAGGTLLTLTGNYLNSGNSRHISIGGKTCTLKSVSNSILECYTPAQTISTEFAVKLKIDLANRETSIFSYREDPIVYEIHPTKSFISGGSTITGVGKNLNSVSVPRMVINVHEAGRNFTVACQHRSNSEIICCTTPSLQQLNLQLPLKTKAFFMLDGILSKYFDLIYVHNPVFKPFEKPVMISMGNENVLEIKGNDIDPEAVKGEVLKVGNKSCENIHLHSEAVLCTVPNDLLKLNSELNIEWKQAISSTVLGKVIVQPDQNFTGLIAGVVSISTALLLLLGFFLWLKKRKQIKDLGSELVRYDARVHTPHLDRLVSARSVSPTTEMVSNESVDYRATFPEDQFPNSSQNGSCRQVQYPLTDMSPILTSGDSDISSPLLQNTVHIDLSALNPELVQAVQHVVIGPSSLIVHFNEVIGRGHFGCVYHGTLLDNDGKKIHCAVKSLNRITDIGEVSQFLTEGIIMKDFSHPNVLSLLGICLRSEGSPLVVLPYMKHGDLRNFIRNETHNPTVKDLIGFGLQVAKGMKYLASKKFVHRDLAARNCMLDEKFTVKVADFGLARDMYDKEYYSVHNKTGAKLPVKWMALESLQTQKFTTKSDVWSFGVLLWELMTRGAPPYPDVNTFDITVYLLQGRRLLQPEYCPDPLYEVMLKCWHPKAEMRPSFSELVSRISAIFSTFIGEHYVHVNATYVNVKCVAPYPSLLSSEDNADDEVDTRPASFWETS

Regarding `COc1cc2c(Oc3ccc(NC(=O)C4(C(=O)Nc5ccc(F)cc5)CC4)cc3F)ccnc2cc1OCCOCCOCCOc1cc(-c2scnc2C)ccc1CNC(=O)[C@@H]1C[C@@H](O)CN1C(=O)[C@H](C(C)C)N1Cc2ccccc2C1=O` [compound 46], the “TUBE1-reactivity (poly-Ub p38δ)” value at FLAG-p38δ is “increased TUBE1-reactivity”.

`COc1cc2c(Oc3ccc(NC(=O)C4(C(=O)Nc5ccc(F)cc5)CC4)cc3F)ccnc2cc1OCCCOCCCOCCC(=O)N[C@H](C(=O)N1C[C@H](O)C[C@H]1C(=O)NCc1ccc(-c2scnc2C)cc1)C(C)(C)C` [Example 1]: at cMET, the “degradation of c-Met (western blot)” value is recorded as “significant protein degradation of c-Met”.
